According to ChEMBL document CHEMBL4627246, “Pyroglutamide-Based P2X7 Receptor Antagonists Targeting Inflammatory Bowel Disease” (J Med Chem, 2020):

Legend:
Assay type in all cases: cell-based
RPMI-8226 = test: Cytotoxicity against human RPMI8226 cells assessed as effect on cell growth at 10 uM incubated for 48 hrs by sulforhodamine B assay; conditions: rpmi-8226, 48 h
NCI-H322M = test: Cytotoxicity against human NCI-H322M cells assessed as effect on cell growth at 10 uM incubated for 48 hrs by sulforhodamine B assay
NCI-H460 = test: Cytotoxicity against human NCI-H460 cells assessed as effect on cell growth at 10 uM incubated for 48 hrs by sulforhodamine B assay; conditions: nci-h460, 48 h
HCT-116 = test: Cytotoxicity against human HCT116 cells assessed as effect on cell growth at 10 uM incubated for 48 hrs by sulforhodamine B assay; conditions: hct-116, 48 h
HCT-15 = test: Cytotoxicity against human HCT15 cells assessed as effect on cell growth at 10 uM incubated for 48 hrs by sulforhodamine B assay; conditions: hct-15, 48 h
HT-29 = test: Cytotoxicity against human HT-29 cells assessed as effect on cell growth at 10 uM incubated for 48 hrs by sulforhodamine B assay; conditions: ht-29, 48 h
KM12 = test: Cytotoxicity against human KM12 cells assessed as effect on cell growth at 10 uM incubated for 48 hrs by sulforhodamine B assay; conditions: km12, 48 h
SNB-75 = test: Cytotoxicity against human SNB75 cells assessed as effect on cell growth at 10 uM incubated for 48 hrs by sulforhodamine B assay; conditions: snb-75, 48 h
U-251 = test: Cytotoxicity against human U251 cells assessed as effect on cell growth at 10 uM incubated for 48 hrs by sulforhodamine B assay; conditions: u-251, 48 h
MDA-MB-435 = test: Cytotoxicity against human MDA-MB-435 cells assessed as effect on cell growth at 10 uM incubated for 48 hrs by sulforhodamine B assay; conditions: mda-mb-435, 48 h
UACC-62 = test: Cytotoxicity against human UACC62 cells assessed as effect on cell growth at 10 uM incubated for 48 hrs by sulforhodamine B assay; conditions: uacc-62, 48 h
IGROV-1 = test: Cytotoxicity against human IGROV1 cells assessed as effect on cell growth at 10 uM incubated for 48 hrs by sulforhodamine B assay; conditions: igrov-1, 48 h
ACHN = test: Cytotoxicity against human ACHN cells assessed as effect on cell growth at 10 uM incubated for 48 hrs by sulforhodamine B assay
CAKI-1 = test: Growth inhibition of human Caki1 cells assessed as growth percentage at 10 uM incubated for 48 hrs by sulforhodamine B assay; conditions: caki-1, 48 h
UO-31 = test: Cytotoxicity against human UO31 cells assessed as effect on cell growth at 10 uM incubated for 48 hrs by sulforhodamine B assay; conditions: uo-31, 48 h
DU-145 = test: Cytotoxicity against human DU145 cells assessed as effect on cell growth at 10 uM incubated for 48 hrs by sulforhodamine B assay; conditions: du-145, 48 h
MCF7 = test: Cytotoxicity against human MCF7 cells assessed as effect on cell growth at 10 uM incubated for 48 hrs by sulforhodamine B assay; conditions: mcf7, 48 h
Hs-578T = test: Cytotoxicity against human Hs 578T cells assessed as effect on cell growth at 10 uM incubated for 48 hrs by sulforhodamine B assay
BT-549 = test: Cytotoxicity against human BT549 cells assessed as effect on cell growth at 10 uM incubated for 48 hrs by sulforhodamine B assay; conditions: bt-549, 48 h
MDA-MB-468 = test: Cytotoxicity against human MDA-MB-468 cells assessed as effect on cell growth at 10 uM incubated for 48 hrs by sulforhodamine B assay; conditions: mda-mb-468, 48 h

Measured: Activity

O=C(NCc1ccc(Cl)cc1Cl)[C@@H]1CCC(=O)N1c1ccc(Cl)cc1
Non-Toxic: all assays above

O=C(NCc1ccc(Cl)cc1Cl)[C@@H]1CCC(=O)N1c1cncs1
Non-Toxic: all assays above

O=C(NCc1ccc(Cl)cc1Cl)[C@@H]1CCC(=O)N1c1ccc(Cl)cc1Cl
Non-Toxic: all assays above

O=C(NCc1ccc(Cl)cc1Cl)[C@@H]1CCC(=O)N1c1cscn1
Non-Toxic: all assays above

C[n+]1ccccc1C(=O)NCc1ccc(Cl)cc1Cl.[I-]
Non-Toxic: all assays above

CN(C)/C=C1\C[C@H]2C(=O)N(Cc3ccccc3Cl)C(N(C)C)N2C1=O (stereo not given in full)
Non-Toxic: all assays above

O=C1N[C@H](C(=O)NCc2ccc(Cl)cc2Cl)C/C1=C/NCc1ccc(Cl)cc1Cl
Non-Toxic: all assays above

COc1cc(CNC(=O)[C@@H]2CCC(=O)N2)cc(OC)c1OC
Non-Toxic: all assays above

O=C(NCCc1ccccc1)[C@@H]1CCC(=O)N1Cc1ccc(Cl)cc1Cl
Non-Toxic: all assays above

COC(=O)[C@@H]1C/C(=C\NCc2ccc(Cl)cc2Cl)C(=O)N1C(=O)OC
Non-Toxic: all assays above

CCCCCCN1C(=O)[C@@H]2CCC(=O)N2C1N(C)C (stereo not given in full)
Non-Toxic: all assays above

Cc1ccc(NC(=O)[C@@H]2CCC(=O)N2c2ccccc2)cc1
Non-Toxic: all assays above

O=C(NCc1ccc(Cl)cc1Cl)[C@@H]1CCC(=O)N1c1cccs1
Non-Toxic: all assays above
